# Assay: Inhibition of Mycobacterium smegmatis MC2 155 recombinant type II NADH dehydrogenase ndh expressed in Escherichia coli assessed as rate of NADH oxidation in the presence of an electron acceptor menadione
row,SMILES,IC50
1,COc1ccc(CN2CC[C@]34OC[C@H](C(C)C)N3C(=O)CC[C@@H]4C2)cc1,890 nM
2,CC(C)[C@H]1CO[C@]23CCN(Cc4ccc(Cl)cc4)C[C@H]2CCC(=O)N13,42 nM
3,CC(C)[C@H]1CO[C@]23CCN(Cc4ccc(C(F)(F)F)nc4)C[C@H]2CCC(=O)N13,88 nM

# From BindingDB's records for PubMed 36473699 (Cnrs, 2022)
